Laboratory results from patent US20110105623A1 (Biogenic Innovations, LLC, priority 2009, published 2011).
Where “and” joins values, the source holds several entries; their conditions need not be identical. Equal values may be shown once. Read-outs that look alike come from different tables or passages of the source.

Assays:
Assay type in all cases: cell-based
[1] = test system: Lactobacillus delbrueckii (Lactobacillus bulgaricus); experiment: Probiotic growth in media supplemented with MSM; design: unit not given here
From the text: Plates were then counted. […] Data are presented in Cfu/mL.

[2] = test system: normal flora found in the milks; experiment: Standard plate counts of non-probiotic microorganisms in Acidophilus milks
[3] = test system: Herpes Simplex Virus type 1 (ATCC #VR-260)

Methylsulfonylmethane [MSM]
Growth of Lactobacillus bulgaricus ([1]; 0.2% MSM, 56 h): 8.79 | Growth of Lactobacillus bulgaricus ([1]; 0.2% MSM, 64 h): 8.79 | Growth of Lactobacillus bulgaricus ([1]; 0.2% MSM, 72 h): 6.72 | Growth of Lactobacillus bulgaricus ([1]; 0.50% MSM, 0 h): 2.23 | Growth of Lactobacillus bulgaricus ([1]; 0.50% MSM, 8 h): 4.42 | Growth of Lactobacillus bulgaricus ([1]; 0.50% MSM, 16 h): 8.28 | Growth of Lactobacillus bulgaricus ([1]; 0.50% MSM, 24 h): 9.05 | Growth of Lactobacillus bulgaricus ([1]; 0.50% MSM, 32 h): 9.54 | Growth of Lactobacillus bulgaricus ([1]; 0.50% MSM, 40 h): 9.40 | Growth of Lactobacillus bulgaricus ([1]; 0.50% MSM, 48 h): 10.82 | Growth of Lactobacillus bulgaricus ([1]; 0.50% MSM, 56 h): 9.14 | Growth of Lactobacillus bulgaricus ([1]; 0.50% MSM, 64 h): 8.80 | Growth of Lactobacillus bulgaricus ([1]; 0.50% MSM, 72 h): 6.72 | Growth of Lactobacillus bulgaricus ([1]; 1% MSM, 0 h): 2.29 | Growth of Lactobacillus bulgaricus ([1]; 1% MSM, 8 h): 4.83 | Growth of Lactobacillus bulgaricus ([1]; 1% MSM, 16 h): 8.36 | Growth of Lactobacillus bulgaricus ([1]; 1% MSM, 24 h): 9.03 | Growth of Lactobacillus bulgaricus ([1]; 1% MSM, 32 h): 9.31 | Growth of Lactobacillus bulgaricus ([1]; 1% MSM, 40 h): 9.34 | Growth of Lactobacillus bulgaricus ([1]; 1% MSM, 48 h): 11.23 | Growth of Lactobacillus bulgaricus ([1]; 1% MSM, 56 h): 8.11 | Growth of Lactobacillus bulgaricus ([1]; 1% MSM, 64 h): 6.50 | Growth of Lactobacillus bulgaricus ([1]; 1% MSM, 72 h): 6.45 | Growth of Lactobacillus bulgaricus ([1]; 5% MSM, 0 h): 2.19 | Growth of Lactobacillus bulgaricus ([1]; 5% MSM, 8 h): 3.28 | Growth of Lactobacillus bulgaricus ([1]; 5% MSM, 16 h): 7.39 | Growth of Lactobacillus bulgaricus ([1]; 5% MSM, 24 h): 8.50 | Growth of Lactobacillus bulgaricus ([1]; 5% MSM, 32 h): 9.29 | Growth of Lactobacillus bulgaricus ([1]; 5% MSM, 40 h): 9.37 | Growth of Lactobacillus bulgaricus ([1]; 5% MSM, 48 h): 10.92 | Growth of Lactobacillus bulgaricus ([1]; 5% MSM, 56 h): 10.07 | Growth of Lactobacillus bulgaricus ([1]; 5% MSM, 64 h): 10.96 | Growth of Lactobacillus bulgaricus ([1]; 5% MSM, 72 h): 8.62 | Growth of Lactobacillus bulgaricus ([1]; […] MSM, 0 h): 2.26 | Growth of Lactobacillus bulgaricus ([1]; […] MSM, 8 h): 4.57 | Growth of Lactobacillus bulgaricus ([1]; […] MSM, 16 h): 8.09 | Growth of Lactobacillus bulgaricus ([1]; […] MSM, 24 h): 9.01 | Growth of Lactobacillus bulgaricus ([1]; […] MSM, 32 h): 9.15 | Growth of Lactobacillus bulgaricus ([1]; […] MSM, 40 h): 9.27 | Growth of Lactobacillus bulgaricus ([1]; […] MSM, 48 h): 11.37 | Growth of Lactobacillus bulgaricus ([1]; […] MSM, 56 h): 8.23 | Growth of Lactobacillus bulgaricus ([1]; […] MSM, 64 h): 8.75 | Growth of Lactobacillus bulgaricus ([1]; […] MSM, 72 h): 6.51 | growth of normal flora (standard plate counts) ([2]; 5.0% MSM, throughout the study): did not allow any significant growth | Growth of non-probiotic microorganisms in Acidophilus Milk ([2]; A/B milk […] MSM, Day 0): 370 cfu per mL | Growth of non-probiotic microorganisms in Acidophilus Milk ([2]; A/B milk […] MSM, Day 3): 480 cfu per mL | Growth of non-probiotic microorganisms in Acidophilus Milk ([2]; A/B milk […] MSM, Day 7): 570 cfu per mL | Growth of non-probiotic microorganisms in Acidophilus Milk ([2]; A/B milk […] MSM, Day 14): 1460 cfu per mL | Growth of non-probiotic microorganisms in Acidophilus Milk ([2]; A/B milk […] MSM, Day 21): 3500 cfu per mL | Growth of non-probiotic microorganisms in Acidophilus Milk ([2]; A/B milk […] MSM, Day 28): 110000 cfu per mL | Growth of non-probiotic microorganisms in Acidophilus Milk ([2]; Acidophilus milk 0.50% MSM, Day 0, duplicates): 20 cfu per mL and 30 cfu per mL | Growth of non-probiotic microorganisms in Acidophilus Milk ([2]; Acidophilus milk 0.50% MSM, Day 3, duplicates): 10 cfu per mL | Growth of non-probiotic microorganisms in Acidophilus Milk ([2]; Acidophilus milk 0.50% MSM, Day 7, duplicates): 10 cfu per mL | Growth of non-probiotic microorganisms in Acidophilus Milk ([2]; Acidophilus milk 0.50% MSM, Day 14, duplicates): 20 cfu per mL | Growth of non-probiotic microorganisms in Acidophilus Milk ([2]; Acidophilus milk 0.50% MSM, Day 21, duplicates): 20 cfu per mL and 40 cfu per mL | Growth of non-probiotic microorganisms in Acidophilus Milk ([2]; Acidophilus milk 5% MSM, Day 0, duplicates): 10 cfu per mL and 20 cfu per mL | Growth of non-probiotic microorganisms in Acidophilus Milk ([2]; Acidophilus milk 5% MSM, Day 3, duplicates): 10 cfu per mL | Growth of non-probiotic microorganisms in Acidophilus Milk ([2]; Acidophilus milk 5% MSM, Day 7, duplicates): 10 cfu per mL and 20 cfu per mL | Growth of non-probiotic microorganisms in Acidophilus Milk ([2]; Acidophilus milk 5% MSM, Day 14, duplicates): 20 cfu per mL and 10 cfu per mL | Growth of non-probiotic microorganisms in Acidophilus Milk ([2]; Acidophilus milk 5% MSM, Day 21, duplicates): 20 cfu per mL and 10 cfu per mL | Growth of non-probiotic microorganisms in Acidophilus Milk ([2]; Acidophilus milk 5% MSM, Day 28, duplicates): 10 cfu per mL | Growth of non-probiotic microorganisms in Acidophilus Milk ([2]; Acidophilus milk […] MSM, Day 0, duplicates): 10 cfu per mL | Growth of non-probiotic microorganisms in Acidophilus Milk ([2]; Acidophilus milk […] MSM, Day 14, duplicates): <10 cfu per mL | Average TCID50 [3]: 3.17log10 and 4.67log10 and 4.33log10 and 4.08log10 and 4.83log10 and 5.00log10 and 5.42log10 | CPE at dilution −8 [3]: 0000 | Response, % reduction [3]: 78.620% and 99.320% and 99.790% and 87.980% and 93.240% and 98.800% and 97.860% and 61.980% | average log10 reduction ([3]; 1% MSM): 0.67 log10 | average percent reduction ([3]; 1% MSM): 78.62% | average log10 reduction ([3]; 2% MSM): 0.84 log10 | average percent reduction ([3]; 2% MSM): 85.55% | average log10 reduction ([3]; 3% MSM): 1.00 log10 | average percent reduction ([3]; 3% MSM): 90.00% | average percent reduction ([3]; 4% MSM): 97.43% | Response, % reduction ([3]; Dose 5.312 mM (log dose 0.7252581)): 32.390% and 61.980% | Response, % reduction ([3]; Dose 31.871 mM (log dose 1.503396)): 96.200% and 93.240% and 61.980% | Response, % reduction ([3]; Dose 53.118 mM (log dose 1.725242)): 87.980% and 93.240% and 98.800% | HillSlope, best-fit value ([3]; log(inhibitor) vs. normalized response, variable slope): 1.523 | LogIC50, best-fit value ([3]; log(inhibitor) vs. normalized response, variable slope, dose in mM): 1.006
